Reference: patent US20240262844A1, “PYRIDINIUM SALTS AND METHODS OF USE” (UNIVERSITY OF WYOMING, priority 2023, published 2024)
Counter-ions that a name gives are not always drawn.

How the values were obtained:
[1] = molecular target: T1, β2-Microglobulin (11.7 kDa) (Homo sapiens, UniProt P61769); experiment: Photochemical labeling of β2-microglobulin (LC/MS, MS-MS); format: biochemical
T1 construct: β2-microglobulin (Human Urine≥98% (SDS-PAGE)); purchased Lee Biosolutions; host or cells: human urine
Procedure: General Procedure B: Photochemical Irradiation of Peptides and Proteins: To a 2 mL Pyrex LC/MS vial (Thermo model #03-391-39) were sequentially added solutions containing the desired biomolecule, glutathione (GSH), pyridinium salt, and ammonium acetate (NH4OAc). The resulting solution was diluted to a final volume of 500 μL and then sparged using nitrogen for a minimum of 30 minutes prior to irradiation. The actively sparging solution was then placed in an EvoluChem™ PhotoRedOx Box photoreactor that was equipped with a Kessil, PR160 427 nm LED Lamp and was then irradiated (100% lamp intensity) for the designated time at room temperature while maintaining active sparging. The resultant reaction mixture was then analyzed directly by LC/MS. Analysis of labeling outcomes using LC/MS was performed either by extracted ion chromatogram intensities (method A) or by integrating the area under the peaks associated with peptide content (method B). […]
Labeling of β2-Microglobulin with Pyridinium Salt 2a (B2-Microglobulin-2a Conjugate). […] The reaction mixture was directly analyzed by LC/MS using method A and was estimated to have proceeded with 88% conversion with a >20:1 mono:di labeled ratio and 7% glutathionylation of all unlabeled and labeled protein content. β2-Microglobulin-2a conjugate (retention time (Tr)=3.26-4.70 min). […]

[2] = molecular target: T2, chymotrypsinogen (25 kDa) (Bos taurus, UniProt P00766); experiment: Photochemical labeling of chymotrypsinogen (LC/MS, MS-MS); format: biochemical, bovine; conditions: digestion/MS-MS
T2 construct: α-Chymotrypsinogen A from bovine pancreas; purchased Sigma Aldrich; host or cells: bovine pancreas
Procedure: General Procedure B: Photochemical Irradiation of Peptides and Proteins: To a 2 mL Pyrex LC/MS vial (Thermo model #03-391-39) were sequentially added solutions containing the desired biomolecule, glutathione (GSH), pyridinium salt, and ammonium acetate (NH4OAc). The resulting solution was diluted to a final volume of 500 μL and then sparged using nitrogen for a minimum of 30 minutes prior to irradiation. The actively sparging solution was then placed in an EvoluChem™ PhotoRedOx Box photoreactor that was equipped with a Kessil, PR160 427 nm LED Lamp and was then irradiated (100% lamp intensity) for the designated time at room temperature while maintaining active sparging. The resultant reaction mixture was then analyzed directly by LC/MS. Analysis of labeling outcomes using LC/MS was performed either by extracted ion chromatogram intensities (method A) or by integrating the area under the peaks associated with peptide content (method B). These values were totaled, and estimated percentages were assigned according to relative intensities of peaks or ion counts.
Labeling of Chymotrypsinogen with pyridinium salt 2a (Chymotrypsinogen-2a Conjugate). […] The reaction mixture was directly analyzed by LC/MS using method A and was estimated to have proceeded with 90% conversion with a 20.7:8.3:1 mono:di:tri labeled ratio and 4% glutathionylation of all unlabeled and labeled protein content. […]

[3] = Stern-Volmer fluorescence quenching analysis; format: physicochemical; conditions: 100 μM pyridinium salt in 20 mM NH4OAc pH 6.9, increasing NATA, 375 nm excitation
Procedure: FIG. 7 is a Stern-Volmer plot of florescence quenching of pyridinium salt 2a with a small molecule tryptophan analog N-acetyltryptophanamide (NATA) according to at least one embodiment of the present disclosure. The Stern-Volmer plot was generated by excitation of a 100 μM solution of pyridinium salt 2a in 20 mM NH4OAc pH 6.9 in the presence of increasing concentrations of NATA. Analyses were performed at 375 nm excitation. The calculated Kq, assuming 11 (0.2548 ns) quenching, was determined to be about 1.019E5 M^−1s^−1. The calculated Kq, assuming τ2 (3.399 ns) quenching, was determined to be about 7.638E3 M^−1s^−1.

T1 sequence (P61769 21-119): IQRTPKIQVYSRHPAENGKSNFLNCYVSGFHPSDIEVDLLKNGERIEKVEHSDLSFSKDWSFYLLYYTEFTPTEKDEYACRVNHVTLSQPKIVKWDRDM

Q: What does the source list for `COC(=O)N(C)[n+]1c(C)cc(-c2ccc3cc(OC)ccc3c2)cc1C` [Pyridinium salt 2a, 1-((methoxycarbonyl)(methyl)amino)-4-(6-methoxynapthalen-2-yl)-2,6-dimethylpyridin-1-ium tetrafluoroborate]?
A: glutathionylation of all unlabeled and labeled protein content ([1]; 10 μM β2-microglobulin, 200 μM pyridinium salt, 1 mM glutathione, 30 minutes): 7%; site of tryptophan modification ([1]; digestion/MS-MS): Trp-60; detectable locations of labeling [2]: Trp-215 and Trp-237; calculated Kq, assuming τ1 (0.2548 ns) quenching [3]: about 1.019E5 M^−1s^−1; calculated Kq, assuming τ2 (3.399 ns) quenching [3]: about 7.638E3 M^−1s^−1
